What was measured:
human recombinant HDAC1 = target: T1, human recombinant HDAC1 (Homo sapiens, UniProt Q13547); test: In vitro HDAC enzyme activity inhibition assay, HDAC1 (HDAC Fluorimetric Drug Discovery Kit); type: biochemical; conditions: human recombinant HDAC1, Fluor de Lys-SIRT1 substrate 10 μM, 30° C. for 60 minutes
T1 construct: purchased Enzo Life Sciences, Inc. BML-SE456
Outline: (§1)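 Fluorimetric deacetylase kit; 0.3 μg human recombinant enzyme with 10 μM Fluor de Lys-SIRT1 substrate, 60 min at 30° C, then developer 30 min. Fluorescence read at Ex 360/Em 460; IC50 from 5-fold compound dilutions. HDAC1 and HDAC6 run by the same protocol.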

human recombinant HDAC6 = target: T2, human recombinant HDAC6 (Homo sapiens, UniProt Q9UBN7); test: In vitro HDAC enzyme activity inhibition assay, HDAC6 (HDAC Fluorimetric Drug Discovery Kit); type: biochemical; conditions: for HDAC6 Selectivity (fold): HDAC6 versus HDAC1; for IC50: human recombinant HDAC6, same protocol as the HDAC1 test
T2 construct: purchased Calbiochem Inc. 382180
T2 sequence (Q9UBN7 1-1215): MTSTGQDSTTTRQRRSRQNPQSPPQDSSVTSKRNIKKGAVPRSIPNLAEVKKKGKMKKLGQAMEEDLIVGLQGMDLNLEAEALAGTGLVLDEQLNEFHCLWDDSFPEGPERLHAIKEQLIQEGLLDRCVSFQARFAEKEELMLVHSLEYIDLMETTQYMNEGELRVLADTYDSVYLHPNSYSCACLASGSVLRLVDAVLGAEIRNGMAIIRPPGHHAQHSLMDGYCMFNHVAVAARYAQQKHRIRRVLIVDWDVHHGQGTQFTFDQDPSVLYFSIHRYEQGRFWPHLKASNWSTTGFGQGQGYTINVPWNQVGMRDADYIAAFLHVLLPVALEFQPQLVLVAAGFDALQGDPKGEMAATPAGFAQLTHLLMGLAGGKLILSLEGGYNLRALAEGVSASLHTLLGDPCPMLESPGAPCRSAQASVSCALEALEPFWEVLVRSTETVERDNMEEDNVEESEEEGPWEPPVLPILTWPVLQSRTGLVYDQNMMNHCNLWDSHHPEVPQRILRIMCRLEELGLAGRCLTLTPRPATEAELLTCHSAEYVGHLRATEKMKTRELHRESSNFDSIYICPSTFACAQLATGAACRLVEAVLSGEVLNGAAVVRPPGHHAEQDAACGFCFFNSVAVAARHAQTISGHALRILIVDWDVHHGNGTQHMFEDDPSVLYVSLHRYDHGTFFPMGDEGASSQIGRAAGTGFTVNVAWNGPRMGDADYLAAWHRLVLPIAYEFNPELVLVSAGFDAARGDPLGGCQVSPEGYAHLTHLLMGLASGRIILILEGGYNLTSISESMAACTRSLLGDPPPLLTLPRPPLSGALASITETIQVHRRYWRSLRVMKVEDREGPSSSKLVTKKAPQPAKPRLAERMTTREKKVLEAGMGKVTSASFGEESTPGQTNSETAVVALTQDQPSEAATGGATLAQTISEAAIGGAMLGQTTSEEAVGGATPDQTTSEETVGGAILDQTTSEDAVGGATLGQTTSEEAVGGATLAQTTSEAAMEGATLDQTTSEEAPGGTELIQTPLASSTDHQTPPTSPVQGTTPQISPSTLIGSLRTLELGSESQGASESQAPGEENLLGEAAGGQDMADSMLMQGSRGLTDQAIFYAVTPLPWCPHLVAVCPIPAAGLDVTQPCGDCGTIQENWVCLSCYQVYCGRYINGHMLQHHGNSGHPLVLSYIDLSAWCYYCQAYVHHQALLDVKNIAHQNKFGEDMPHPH
Outline: as §1

T1 sequence (Q13547 whole entry): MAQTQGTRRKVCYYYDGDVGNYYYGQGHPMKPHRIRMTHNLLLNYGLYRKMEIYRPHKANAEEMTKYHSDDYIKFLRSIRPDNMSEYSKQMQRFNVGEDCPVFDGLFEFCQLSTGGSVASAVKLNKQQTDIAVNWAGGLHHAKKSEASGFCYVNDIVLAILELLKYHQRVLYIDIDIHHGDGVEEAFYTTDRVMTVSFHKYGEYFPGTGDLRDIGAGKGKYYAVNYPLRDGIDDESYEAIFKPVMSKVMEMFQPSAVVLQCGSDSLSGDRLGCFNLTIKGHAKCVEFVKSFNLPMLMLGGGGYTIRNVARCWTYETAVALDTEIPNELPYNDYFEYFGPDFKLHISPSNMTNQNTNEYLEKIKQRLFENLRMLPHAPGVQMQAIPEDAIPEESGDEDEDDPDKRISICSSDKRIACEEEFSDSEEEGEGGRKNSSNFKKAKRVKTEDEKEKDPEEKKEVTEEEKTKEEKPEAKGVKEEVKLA

| IC50 (human recombinant HDAC1) | HDAC6 Selectivity (fold) (human recombinant HDAC6) | IC50 (human recombinant HDAC6) | SMILES |
| --- | --- | --- | --- |
| > 50000 nM | 160 fold | 312 nM | CS(=O)(=O)N1CC(C(=O)N(Cc2cn3ccc(-c4nnc(C(F)F)o4)cc3n2)c2ccccc2)C1 [Compound 4173, N-((7-(5-(difluoromethyl)-1,3,4-oxadiazol-2-yl)imidazo[1,2-a]pyridin-2-yl)methyl)-1-(methylsulfonyl)-N-phenylazetidine-3-carboxamide] |
| > 50000 nM | 168 fold | 298 nM | COC(=O)N1CC(C(=O)N(Cc2cn3ccc(-c4nnc(C(F)F)o4)cc3n2)c2ccccc2)C1 [Compound 4174, methyl 3-(((7-(5-(difluoromethyl)-1,3,4-oxadiazol-2-yl)imidazo[1,2-a]pyridin-2-yl)methyl)(phenyl)carbamoyl) azetidine-1-carboxylate] |
| > 50000 nM | 131 fold | 381 nM | CN(C)C(=O)N1CC(C(=O)N(Cc2cn3ccc(-c4nnc(C(F)F)o4)cc3n2)c2ccccc2)C1 [Compound 4175, N3-((7-(5-(difluoromethyl)-1,3,4-oxadiazol-2-yl)imidazo[1,2-a]pyridin-2-yl)methyl)-N1,N1-dimethyl-N3-phenylazetidine-1,3-dicarboxamide] |
| > 50000 nM | 199 fold | 251 nM | O=C(C1CN(c2ccccn2)C1)N(Cc1cn2ccc(-c3nnc(C(F)F)o3)cc2n1)c1ccccc1 [Compound 4176, N-((7-(5-(difluoromethyl)-1,3,4-oxadiazol-2-yl)imidazo[1,2-a]pyridin-2-yl)methyl)-N-phenyl-1-(pyridin-2-yl) azetidine-3-carboxamide] |
| > 50000 nM | 205 fold | 244 nM | O=C(C1CN(c2ncccn2)C1)N(Cc1cn2ccc(-c3nnc(C(F)F)o3)cc2n1)c1ccccc1 [Compound 4177, N-((7-(5-(difluoromethyl)-1,3,4-oxadiazol-2-yl)imidazo[1,2-a]pyridin-2-yl)methyl)-N-phenyl-1-(pyrimidin-2-yl) azetidine-3-carboxamide] |
| > 50000 nM | 134 fold | 373 nM | CN1CC(C(=O)N(Cc2cn3ccc(-c4nnc(C(F)F)o4)cc3n2)c2cccc(F)c2)C1 [Compound 4188, N-((7-(5-(difluoromethyl)-1,3,4-oxadiazol-2-yl)imidazo[1,2-a]pyridin-2-yl)methyl)-N-(3-fluorophenyl)-1-methylazetidine-3-carboxamide] |
| > 50000 nM | 315 fold | 159 nM | CCN1CC(C(=O)N(Cc2cn3ccc(-c4nnc(C(F)F)o4)cc3n2)c2cccc(F)c2)C1 [Compound 4189, N-((7-(5-(difluoromethyl)-1,3,4-oxadiazol-2-yl)imidazo[1,2-a]pyridin-2-yl)methyl)-1-ethyl-N-(3-fluorophenyl) azetidine-3-carboxamide] |
| > 50000 nM | 395 fold | 126 nM | CC(C)N1CC(C(=O)N(Cc2cn3ccc(-c4nnc(C(F)F)o4)cc3n2)c2cccc(F)c2)C1 [Compound 4190, N-((7-(5-(difluoromethyl)-1,3,4-oxadiazol-2-yl)imidazo[1,2-a]pyridin-2-yl)methyl)-N-(3-fluorophenyl)-1-isopropylazetidine-3-carboxamide] |
| > 50000 nM | 373 fold | 134 nM | CC(CO)N1CC(C(=O)N(Cc2cn3ccc(-c4nnc(C(F)F)o4)cc3n2)c2cccc(F)c2)C1 (stereo not drawn) [Compound 4191, N-((7-(5-(difluoromethyl)-1,3,4-oxadiazol-2-yl)imidazo[1,2-a]pyridin-2-yl)methyl)-N-(3-fluorophenyl)-1-(1-hydroxypropan-2-yl) azetidine-3-carboxamide] |
| > 50000 nM | 452 fold | 111 nM | O=C(C1CN(C2CCC2)C1)N(Cc1cn2ccc(-c3nnc(C(F)F)o3)cc2n1)c1cccc(F)c1 [Compound 4192, 1-cyclobutyl-N-((7-(5-(difluoromethyl)-1,3,4-oxadiazol-2-yl)imidazo[1,2-a]pyridin-2-yl)methyl)-N-(3-fluorophenyl) azetidine-3-carboxamide] |

Source: US12522601B2, “1,3,4-oxadiazole derivative compounds as histone deacetylase 6 inhibitor, and the pharmaceutical composition comprising the same” (CHONG KUN DANG PHARMACEUTICAL CORP., priority 2020, dated 2026)
